According to patent US20070149480A1 (Alcon, Inc., priority 2005, published 2007):
≈ marks a conversion by molar mass, not a printed value.

What was measured:
[1] = Solubility of RTKi in phosphate buffer vehicle containing hydroxypropyl cyclodextrin (HPCD); assay type: physicochemical; settings: for solubility enhancement: 10% HPCD in phosphate buffer vs phosphate buffer alone; for solubility: RTKi Solubility
Source text: (§1) The present inventors have discovered that use of cyclodextrin derivatives to solubilize highly insoluble anti-angiogenic active compounds provides an efficacious ophthalmic formulation. […] Prototype intravitreal vehicle is shown in Example 1, and intravitreal and PJ formulations of the active compound containing HPCD are provided in Examples 2 and 3, respectively.
Solubility of RTKi in phosphate buffer vehicle containing various amount of hydroxypropyl cyclodextrin (HPCD).

FGFR = assay: Kinase inhibition, cell-free enzymatic assay; assay type: biochemical; settings: 1 mM ATP
Procedure: All data reported as IC50 values for kinase inhibition in cell-free enzymatic assays; ND denotes no data. Values determined @ 1 mM ATP.

[2] = Solubility of RTKi in phosphate buffer vehicle containing sulfobutylether beta cyclodextrin (SBCD); assay type: physicochemical; settings: for solubility: RTKi Solubility
Source text: as §1

- RTKi Solubility ([1]; 10% HPCD Phosphate Buffer): 1098.8 µg/mL
- solubility expressed as percent ([1]; 10% HPCD in phosphate buffer): about 0.1%
- solubility enhancement [1]: More than 1800 fold
- solubility enhancement ([1]; listed as active compound): approximately 1800 fold
- solubility ([1]; phosphate buffer (0% HPCD), pH 7.2, aqueous buffer, pH 7.2): 0.59 µg/mL (≈ 1.57 µM)
- solubility ([1]; phosphate buffer with 1% HPCD, pH 7.2, aqueous with cosolvent or surfactant or cyclodextrin, 1% HPCD in Phosphate Buffer): 82.3 µg/mL (≈ 219 µM)
- solubility ([1]; phosphate buffer with 5% HPCD, pH 7.2, aqueous with cosolvent or surfactant or cyclodextrin, 5% HPCD Phosphate Buffer): 527 µg/mL (≈ 1400 µM)
- solubility ([1]; phosphate buffer with 10% HPCD, pH 7.2, aqueous with cosolvent or surfactant or cyclodextrin, 10% HPCD Phosphate Buffer): 1090 µg/mL (≈ 2900 µM)
- IC50 (FGFR): > 12.5 µM
- RTKi Solubility ([2]; 10% SBCD Phosphate Buffer): 2526.5 µg/mL
- solubility ([2]; phosphate buffer (0% SBCD), pH 7.2, aqueous buffer): 0.59 µg/mL (≈ 1.57 µM)
- solubility ([2]; phosphate buffer with 1% SBCD, pH 7.2, aqueous with cosolvent or surfactant or cyclodextrin, 1% SBCD in Phosphate Buffer): 188 µg/mL (≈ 501 µM)
- solubility ([2]; phosphate buffer with 2.5% SBCD, pH 7.2, aqueous with cosolvent or surfactant or cyclodextrin, 2.5% SBCD Phosphate Buffer): 641 µg/mL (≈ 1710 µM)
- solubility ([2]; phosphate buffer with 5% SBCD, pH 7.2, aqueous with cosolvent or surfactant or cyclodextrin, 5% SBCD Phosphate Buffer): 1090 µg/mL (≈ 2910 µM)
- solubility ([2]; phosphate buffer with 10% SBCD, pH 7.2, aqueous with cosolvent or surfactant or cyclodextrin, 10% SBCD Phosphate Buffer): 2520 µg/mL (≈ 6710 µM)
- solubility ([2]; phosphate buffer with 20% SBCD, pH 7.2, aqueous with cosolvent or surfactant or cyclodextrin, 20% SBCD Phosphate Buffer): 4120 µg/mL (≈ 11000 µM)
Structure (SMILES): Cc1ccc(F)c(NC(=O)Nc2ccc(-c3cccc4[nH]nc(N)c34)cc2)c1 [RTKi, N-[4-(3-amino-1H-indazol-4-yl)phenyl]-N′-(2-fluoro-5-methylphenyl) urea]
